Details: for vapor or sublimation pressure: Liquid; for molar volume: Gas, isochoric method

FC(C(F)(F)F)C(F)(F)F [1,1,1,2,3,3,3-heptafluoropropane]
Details	vapor or sublimation pressure [kPa]
235.07 K	35.5
240.23 K	46.5
245.31 K	59.9
250.44 K	76.3
255.11 K	94.1
260.28 K	117.5
265.66 K	146.4
270.55 K	177.2
275.23 K	211.1
280.19 K	252.4
285.44 K	302.4
290.14 K	353.3
295.27 K	416.1
300.24 K	484.6
305.29 K	562.6
310.37 K	650.5
315.41 K	747.3
320.07 K	845.9
325.19 K	965.7
329.97 K	1088.3
335.04 K	1230.8
339.99 K	1383
345.15 K	1556.8
350.26 K	1744.7
355.11 K	1939
360.18 K	2159.7
365.27 K	2401.5

Details	molar volume [m3/mol]
293.37 K, 214.8 kPa	0.0106
298.02 K, 297.6 kPa	0.007594
298.06 K, 219 kPa	0.0106
298.58 K, 387 kPa	0.00567
303.22 K, 304.1 kPa	0.007596
303.42 K, 223.7 kPa	0.0106
303.52 K, 484.7 kPa	0.004479
303.65 K, 395.8 kPa	0.005671
308.37 K, 228 kPa	0.0106
308.57 K, 310.7 kPa	0.007598
308.57 K, 562.5 kPa	0.003857
308.67 K, 496.4 kPa	0.00448
308.69 K, 404.7 kPa	0.005672
313.63 K, 507.6 kPa	0.004481
313.69 K, 413.2 kPa	0.005673
314.14 K, 232.7 kPa	0.01061
314.16 K, 317.9 kPa	0.0076
314.22 K, 577.9 kPa	0.003858
318.62 K, 518.9 kPa	0.004482
318.66 K, 421.6 kPa	0.005675
319.44 K, 237.1 kPa	0.01061
319.6 K, 324.5 kPa	0.007601
319.97 K, 593.4 kPa	0.003859
323.74 K, 530.4 kPa	0.004483
323.82 K, 430.2 kPa	0.005676
324.15 K, 241.1 kPa	0.01061
324.21 K, 329.9 kPa	0.007603
324.39 K, 605.1 kPa	0.003859
328.01 K, 244.4 kPa	0.01061
328.19 K, 334.6 kPa	0.007604
328.2 K, 614.9 kPa	0.00386
328.46 K, 540.6 kPa	0.004484
328.9 K, 438.8 kPa	0.005677
333.39 K, 248.8 kPa	0.01062
333.4 K, 551.4 kPa	0.004485
333.62 K, 341.1 kPa	0.007606
333.92 K, 629.9 kPa	0.003861
334.02 K, 447.3 kPa	0.005679
338.69 K, 642 kPa	0.003862
338.92 K, 253.5 kPa	0.01062
338.96 K, 347.5 kPa	0.007608
338.96 K, 563.3 kPa	0.004486
339.15 K, 455.7 kPa	0.00568
343.8 K, 257.7 kPa	0.01062
343.94 K, 655.2 kPa	0.003863
343.99 K, 353.6 kPa	0.00761
344.11 K, 574.3 kPa	0.004487
344.27 K, 464.1 kPa	0.005681
348.97 K, 359.5 kPa	0.007611
349.04 K, 261.8 kPa	0.01062
349.14 K, 668.4 kPa	0.003864
349.17 K, 585 kPa	0.004488
349.21 K, 472.1 kPa	0.005682
353.32 K, 364.5 kPa	0.007613
353.39 K, 679.1 kPa	0.003864
353.64 K, 265.6 kPa	0.01063
354.39 K, 596 kPa	0.004489
354.73 K, 481 kPa	0.005684

Reference: the NIST ThermoML archive (doi:10.1021/je034084d)
